Measured values from patent US20070196478A1, “ANTIVIRAL COMPOSITIONS” (priority 1999, published 2007).

Test: thermal stability of the antiviral compound after melt extrusion (HPLC)
Assay type: physicochemical
Conditions: melt extrudate with HPMC 2910 5 mPa·s, 70° C. to […] C.
Description: The melt extrudate was milled and fractions with particle size below 150 μm (condition I in point 6) and between 500 and 850 μm (condition II in point 6) were collected.

degradation of the antiviral compound after melt extrusion: No degradation
Compound: Cc1cc(C)c(Nc2ccnc(Nc3ccc(C#N)cc3)n2)c(C)c1 [Compound 17 of formula (I-A), 4-[[4-[(2,4,6-trimethylphenyl)amino]-2-pyrimidinyl]amino]benzonitrile]
